In BindingDB's records for doi:10.1016/S0960-894X(97)10080-4 (1997) one finds EC50 data, which are given here for 1 compound.

A short description of the experiment: Tested for functional activity against neuronal nicotinic acetylcholine receptor(nAChR) expressed in K177 cells using isotopic rubidium efflux assay.

`c1cnc2cc([C@@H]3CCCN3)oc2c1` [(S)-2-Pyrrolidin-2-yl-furo[3,2-b]pyridine]: the EC50 was over 1 mM.
